Test results: ChEMBL document CHEMBL1268980, “2-Aryl benzimidazoles: human SCD1-specific stearoyl coenzyme-A desaturase inhibitors” (Bioorg Med Chem Lett, 2010)

Experiments:
Acyl-CoA desaturase 1 = biological target: T1, Acyl-CoA desaturase 1 (Rattus norvegicus, UniProt P07308); assay: Inhibition of rat SCD1
T1 sequence (P07308 whole entry): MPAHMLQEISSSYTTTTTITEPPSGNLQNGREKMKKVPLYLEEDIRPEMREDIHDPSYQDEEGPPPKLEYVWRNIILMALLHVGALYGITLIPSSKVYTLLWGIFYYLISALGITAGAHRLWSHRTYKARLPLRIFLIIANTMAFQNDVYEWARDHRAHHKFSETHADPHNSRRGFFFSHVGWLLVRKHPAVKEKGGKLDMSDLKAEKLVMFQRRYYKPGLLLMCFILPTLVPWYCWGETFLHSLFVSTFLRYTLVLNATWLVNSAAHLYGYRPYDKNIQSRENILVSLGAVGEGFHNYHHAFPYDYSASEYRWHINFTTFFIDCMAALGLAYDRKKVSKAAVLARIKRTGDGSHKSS

Stearoyl-CoA desaturase = biological target: T2, Stearoyl-CoA desaturase (Homo sapiens, UniProt O00767); assay: Inhibition of human SCD1
T2 sequence (O00767 whole entry): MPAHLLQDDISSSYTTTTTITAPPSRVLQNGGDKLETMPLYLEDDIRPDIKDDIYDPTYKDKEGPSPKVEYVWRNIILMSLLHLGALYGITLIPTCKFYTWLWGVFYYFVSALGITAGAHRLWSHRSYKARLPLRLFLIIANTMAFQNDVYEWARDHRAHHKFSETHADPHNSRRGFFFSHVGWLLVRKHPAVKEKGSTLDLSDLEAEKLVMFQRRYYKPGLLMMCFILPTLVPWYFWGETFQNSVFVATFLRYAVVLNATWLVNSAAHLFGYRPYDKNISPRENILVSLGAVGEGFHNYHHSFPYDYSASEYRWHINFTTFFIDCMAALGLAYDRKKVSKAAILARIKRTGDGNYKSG

[1] = biological target: T3, Stearoyl-CoA desaturase 5 (Homo sapiens, UniProt Q86SK9); assay: Inhibition of human SCD5
T3 sequence (Q86SK9 whole entry): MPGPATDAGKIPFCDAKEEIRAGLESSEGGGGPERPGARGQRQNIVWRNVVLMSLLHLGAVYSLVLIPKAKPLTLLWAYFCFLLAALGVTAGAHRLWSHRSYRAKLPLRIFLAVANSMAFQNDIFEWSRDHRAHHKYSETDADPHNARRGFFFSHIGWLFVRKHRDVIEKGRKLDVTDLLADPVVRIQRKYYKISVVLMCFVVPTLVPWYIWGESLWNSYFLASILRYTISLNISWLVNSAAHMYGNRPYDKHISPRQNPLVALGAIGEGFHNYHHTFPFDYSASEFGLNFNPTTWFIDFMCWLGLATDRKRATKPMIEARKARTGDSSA

[2] = biological target: T4, Acyl-CoA (8-3)-desaturase (Rattus norvegicus, UniProt Q920R3); assay: Inhibition of rat Delta(5) fatty acid desaturase by cell based assay
T4 sequence (Q920R3 whole entry): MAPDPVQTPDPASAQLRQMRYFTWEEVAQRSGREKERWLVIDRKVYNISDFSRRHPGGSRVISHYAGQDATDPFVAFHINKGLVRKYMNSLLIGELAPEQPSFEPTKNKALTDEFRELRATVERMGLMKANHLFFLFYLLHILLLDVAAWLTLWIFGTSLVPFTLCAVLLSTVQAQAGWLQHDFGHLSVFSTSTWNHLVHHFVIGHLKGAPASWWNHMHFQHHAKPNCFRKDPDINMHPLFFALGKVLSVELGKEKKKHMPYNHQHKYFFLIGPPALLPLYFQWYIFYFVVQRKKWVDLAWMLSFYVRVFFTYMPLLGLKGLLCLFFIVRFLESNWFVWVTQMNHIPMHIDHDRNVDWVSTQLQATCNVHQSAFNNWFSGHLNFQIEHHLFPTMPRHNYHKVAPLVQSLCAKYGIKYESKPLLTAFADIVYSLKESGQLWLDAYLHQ

[3] = biological target: Acyl-CoA (8-3)-desaturase (Homo sapiens, UniProt O60427); assay: Inhibition of Delta(5) fatty acid desaturase in human HepG2 cells; assay type: cell-based
Chain of Acyl-CoA (8-3)-desaturase (Homo sapiens, UniProt O60427) (O60427 whole entry): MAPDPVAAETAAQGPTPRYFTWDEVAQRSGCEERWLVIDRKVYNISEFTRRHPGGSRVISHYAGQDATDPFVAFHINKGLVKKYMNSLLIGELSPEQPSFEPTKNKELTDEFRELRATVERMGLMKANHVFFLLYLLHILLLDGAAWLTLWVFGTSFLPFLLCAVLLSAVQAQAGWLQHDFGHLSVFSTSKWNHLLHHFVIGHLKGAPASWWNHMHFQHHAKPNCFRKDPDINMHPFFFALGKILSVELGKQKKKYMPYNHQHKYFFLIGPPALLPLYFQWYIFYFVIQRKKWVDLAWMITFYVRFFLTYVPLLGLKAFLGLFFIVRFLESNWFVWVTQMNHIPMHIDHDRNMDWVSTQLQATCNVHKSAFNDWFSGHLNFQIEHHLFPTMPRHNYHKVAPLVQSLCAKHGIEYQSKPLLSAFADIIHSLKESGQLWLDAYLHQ

[4] = biological target: T4, Acyl-CoA (8-3)-desaturase; assay: Inhibition of Delta(5) fatty acid desaturase in freshly isolated rat hepatocytes; assay type: cell-based, Hepatocyte
[5] = Oral bioavailability in C57BL/6 mouse at 10 mg/kg, po; assay type: ADME, organism-based, C57BL6; conditions: in vivo
[6] = Terminal half life in C57BL/6 mouse at 10 mg/kg, po or 2 mg/kg, iv; assay type: ADME, organism-based, C57BL6; conditions: in vivo, read-out: beta t1/2 (converted)
[7] = AUC in C57BL/6 mouse plasma at 10 mg/kg, po or 2 mg/kg, iv; assay type: ADME, organism-based, C57BL6
[8] = Plasma clearance in C57BL/6 mouse at 10 mg/kg, po or 2 mg/kg, iv; assay type: ADME, organism-based, C57BL6
[9] = Volume of distribution at steady state in C57BL/6 mouse at 10 mg/kg, po or 2 mg/kg, iv; assay type: ADME, organism-based, C57BL6; conditions: in vivo, read-out: Vdss
[10] = Oral bioavailability in Beagle dog at 2 mg/kg, po; assay type: ADME, organism-based, Canis lupus familiaris; conditions: in vivo
[11] = Half life in Beagle dog at 2 mg/kg, po or 0.5 mg/kg, iv; assay type: ADME, organism-based, Canis lupus familiaris; conditions: in vivo
[12] = AUC in Beagle dog plasma at 2 mg/kg, po or 0.5 mg/kg, iv; assay type: ADME, organism-based, Canis lupus familiaris
[13] = Plasma clearance in Beagle dog at 2 mg/kg, po or 0.5 mg/kg, iv; assay type: ADME, organism-based, Canis lupus familiaris
[14] = Volume of distribution at steady state in Beagle dog at 2 mg/kg, po or 0.5 mg/kg, iv; assay type: ADME, organism-based, Canis lupus familiaris; conditions: in vivo, read-out: Vdss
Mus musculus [15] = assay: Inhibition of SCD activity in po dosed high sucrose/fat free diet fed C57BL/6 mouse assessed as reduction in conversion of [14C]stearic acid to [14C]oleic acid; assay type: functional, organism-based; conditions: C57BL6
Mus musculus [16] = assay: Inhibition of SCD activity in high sucrose/fat free diet fed C57BL/6 mouse assessed as reduction in conversion of [14C]stearic acid to [14C]oleic acid at 30 mg/kg, po; assay type: functional; conditions: C57BL6
Mus musculus [17] = assay: Inhibition of SCD activity in high sucrose/fat free diet fed C57BL/6 mouse assessed as reduction in conversion of [14C]stearic acid to [14C]oleic acid at 100 mg/kg, po; assay type: functional; conditions: C57BL6
[18] = Drug level in high sucrose/fat free diet fed C57BL/6 mouse plasma at 30 mg/kg, po after 3 hrs post dose; assay type: ADME, organism-based, C57BL6; parameters: dose 30 mg/kg, route oral
[19] = Drug level in high sucrose/fat free diet fed C57BL/6 mouse plasma at 100 mg/kg, po after 3 hrs post dose; assay type: ADME, organism-based, C57BL6; parameters: dose 100 mg/kg, route oral
[20] = Drug level in high sucrose/fat free diet fed C57BL/6 mouse liver at 30 mg/kg, po after 3 hrs post dose; assay type: ADME, organism-based, C57BL6; parameters: dose 30 mg/kg, route oral; conditions: read-out: Drug uptake
[21] = Drug level in high sucrose/fat free diet fed C57BL/6 mouse liver at 100 mg/kg, po after 3 hrs post dose; assay type: ADME, organism-based, C57BL6; parameters: dose 100 mg/kg, route oral; conditions: read-out: Drug uptake

Row | SMILES | IC50 (Acyl-CoA desaturase 1) [µM] | IC50 (Stearoyl-CoA desaturase) [µM] | IC50 [1] [µM] | other results
1 | Cc1ccccc1-c1ccc(-c2nc3ccc(S(C)(=O)=O)cc3[nH]2)cc1 | 3.86 | – | – | –
2 | CCS(=O)(=O)c1ccc2nc(-c3ccc(-c4ccccc4F)cc3)[nH]c2c1 | 1.25 | 1.31 | > 20 | –
3 | CS(=O)(=O)c1ccc2nc(-c3ccc(-c4ccccc4Cl)cc3)[nH]c2c1 | 4.49 | 0.255 | > 20 | –
4 | CS(=O)(=O)c1ccc2nc(-c3ccc(-c4ccccn4)cc3)[nH]c2c1 | 1.71 | 1.76 | > 20 | –
5 | CS(=O)(=O)c1ccc2nc(-c3ccc(-c4ccccc4)cc3)cn2c1 | > 20 | – | – | –
6 | CSc1ccc2nc(-c3ccc(-c4ccccc4F)cc3)[nH]c2c1 | 0.697 | – | – | –
7 | CN(C)S(=O)(=O)c1ccc2nc(-c3ccc(-c4ccccc4F)cc3)[nH]c2c1 | 0.528 | – | – | –
8 | Cc1ccc(-c2ccc(-c3nc4ccc(S(C)(=O)=O)cc4[nH]3)cc2)cc1 | > 20 | – | – | –
9 | CS(=O)(=O)c1ccc2nc(-c3ccc(-c4ccccc4)cc3)sc2c1 | > 20 | – | – | –
10 | CS(=O)(=O)c1ccc2nc(-c3ccc(Br)cc3)[nH]c2c1 | > 20 | – | – | –
11 | CS(=O)(=O)c1ccc2nc(-c3ccc(-c4ccc(Cl)cc4)cc3)[nH]c2c1 | > 20 | – | – | –
12 | Fc1ccccc1-c1ccc(-c2nc3ccccc3[nH]2)cc1 | > 20 | – | – | –
13 | CS(=O)(=O)c1ccc2nc(-c3ccc(-c4ccc(-c5ccccc5)s4)cc3)[nH]c2c1 | > 20 | – | – | –
14 | N#Cc1ccc2nc(-c3ccc(-c4ccccc4F)cc3)[nH]c2c1 | > 20 | > 20 | > 20 | –
15 | Cn1c(-c2ccc(-c3ccccc3F)nc2)nc2cc(S(C)(=O)=O)ccc21 | 2.49 | – | – | –
16 | Cn1c(-c2ccc(-c3ccccc3F)nc2)nc2ccc(S(C)(=O)=O)cc21 | > 20 | – | – | –
17 | CS(=O)(=O)c1ccc2nc(-c3ccc(-c4ccncc4)cc3)[nH]c2c1 | 2.47 | 4.25 | > 20 | –
18 | CS(=O)(=O)c1ccc2nc(-c3cnc(-c4ccccc4)nc3)[nH]c2c1 | 0.489 | – | – | –

Now those with a lower IC50 (Acyl-CoA desaturase 1), led by results:

Row | IC50 (Acyl-CoA desaturase 1) [µM] | IC50 (Stearoyl-CoA desaturase) [µM] | IC50 [1] [µM] | SMILES | other results
19 | 0.319 | – | – | Cc1cccc(-c2ccc(-c3nc4ccc(S(C)(=O)=O)cc4[nH]3)cc2)c1 | –
20 | 0.058 | 0.019 | > 20 | CS(=O)(=O)c1ccc2nc(-c3ccc(-c4ccccc4F)nc3)[nH]c2c1 | –
21 | 0.278 | – | – | CS(=O)(=O)c1ccc2nc(-c3ccc(-c4cc(Cl)ccc4F)cc3)[nH]c2c1 | –
22 | 0.227 | – | – | CS(=O)(=O)c1ccc2nc(-c3ccc(-c4ccccc4F)cn3)[nH]c2c1 | –
23 | 0.396 | 0.342 | > 20 | CS(=O)(=O)c1ccc2nc(-c3ccc(-c4cccc(O)c4)cc3)[nH]c2c1 | –
24 | 0.065 | 0.027 | > 20 | CS(=O)(=O)c1ccc2nc(-c3ccc(-c4ccccc4F)cc3)[nH]c2c1 | IC50 [2]: > 50 µM; IC50 [3]: 1.32 µM; IC50 [4]: 5.17 µM; bioavailability [5]: 39%; half-life [6]: 35.5 h; AUC [7]: 8 µM·h; clearance [8]: 1.2 L/h/kg; Vd [9]: 2.9 L/kg; bioavailability [10]: 70%; half-life [11]: 1.1 h; AUC [12]: 2.4 µM·h; clearance [13]: 1.56 L/h/kg; Vd [14]: 2 L/kg; inhibition (Mus musculus [15]): Dose-dependent effect; inhibition in vivo at 30 mg/kg (Mus musculus [16]): 36%; inhibition in vivo at 100 mg/kg (Mus musculus [17]): 78%; concentration at 3 h [18]: 6.5 µM; concentration at 3 h [19]: 13.2 µM; concentration at 3 h [20]: 10.1 µM; concentration at 3 h [21]: 31.9 µM
25 | 0.343 | 0.074 | > 20 | NS(=O)(=O)c1ccc2nc(-c3ccc(-c4ccccc4F)cc3)[nH]c2c1 | –
26 | 0.148 | 0.015 | > 10 | CS(=O)(=O)c1ccc2nc(-c3ccc(-c4cccc(Cl)c4)cc3)[nH]c2c1 | –
27 | 0.02 | 0.024 | > 10 | CS(=O)(=O)c1ccc2nc(-c3ccc(-c4ccccc4)cc3)[nH]c2c1 | –
28 | 0.395 | 1.7 | > 20 | CS(=O)(=O)c1ccc2nc(-c3ccc(-c4ccoc4)cc3)[nH]c2c1 | –
29 | 0.104 | – | – | CS(=O)(=O)c1ccc2nc(-c3ccc(-c4ccsc4)cc3)[nH]c2c1 | –
30 | 0.156 | – | > 20 | CS(=O)(=O)c1cnc2nc(-c3ccc(-c4ccccc4F)cc3)[nH]c2c1 | –
31 | 0.304 | 2.33 | > 20 | CS(=O)(=O)c1ccc2nc(-c3ccc(-c4ccc(O)cc4)cc3)[nH]c2c1 | –
32 | 0.097 | – | > 20 | CS(=O)(=O)c1ccc2nc(-c3ccc(-c4cccs4)cc3)[nH]c2c1 | –
33 | 0.472 | – | – | Cc1ccsc1-c1ccc(-c2nc3ccc(S(C)(=O)=O)cc3[nH]2)cc1 | –
34 | 0.175 | 0.731 | > 20 | CC(C)(C)c1ccc2nc(-c3ccc(-c4ccccc4F)cc3)[nH]c2c1 | –
35 | 0.425 | – | – | CS(=O)(=O)c1ccc2nc(-c3ccc(-c4cccnc4)cc3)[nH]c2c1 | –
36 | 0.472 | 0.096 | > 20 | C[S+]([O-])c1ccc2nc(-c3ccc(-c4ccccc4F)cc3)[nH]c2c1 (stereo not drawn) | –
37 | 0.021 | 0.03 | > 20 | CS(=O)(=O)c1ccc2nc(-c3ccc(-c4cccc(F)c4)cc3)[nH]c2c1 | –
38 | 0.042 | 0.06 | > 20 | CS(=O)(=O)c1ccn2cc(-c3ccc(-c4ccccc4)cc3)nc2c1 | –
39 | 0.095 | – | – | CS(=O)(=O)c1ccc2nc(-c3ccc(-c4cccc(Cl)c4F)cc3)[nH]c2c1 | –
40 | 0.025 | – | – | CS(=O)(=O)c1ccc2nc(-c3ccc(-c4ccc(F)cc4)cc3)[nH]c2c1 | –
41 | 0.336 | – | – | CS(=O)(=O)c1ccc2nc(-c3ccc(-c4ccccc4O)cc3)[nH]c2c1 | –
42 | 0.401 | – | – | O=S(=O)(c1ccc2nc(-c3ccc(-c4ccccc4F)cc3)[nH]c2c1)C1CC1 | –
